In assay [1] the test system is tRNA^phe (RNA, tRNA) GCGGAUUUAGCUCAGUUGGGAGAGCGCCAGACUGAAGAUCUGGAGGUCCUGUGUUCGAUCCACAGAAUUCGCACCA
The assay is described as follows: ITC, single site model. The note with it: 20 mM Na+, citrate-phosphate buffer pH 7.0, 20°C, per nucleotide phosphate, per base.

Assay [2] has the same test system. The assay can be described thus: DSC and optical melting. To be noted: Na+, citrate-phosphate buffer pH 7.0, third transition (61°C), first unaffected, compound concentration not stated, per base.
The test system is the same in assay [3]. The assay is described as follows: absorption titration, Scatchard, McGhee-von Hippel. To be noted: 20 mM Na+, citrate-phosphate buffer pH 7.0, 20°C, per nucleotide phosphate, per base.
Assay [4] has the same test system. The assay can be described thus: fluorescence titration, Scatchard, McGhee-von Hippel. The note with it: 20 mM Na+, citrate-phosphate buffer pH 7.0, 20°C, per nucleotide phosphate, per base.

`COc1cccc2c1C(=O)c1c(O)c3c(c(O)c1C2=O)C[C@@](O)(C(C)=O)C[C@@H]3O[C@H]1C[C@H](N)[C@H](O)[C@H](C)O1`: the K in assay [1] is on record as 22.2 ± 0.1 × 10^4 M^-1. In addition, the dTm in assay [2] (second transition about 4°C) turned out to be 12.5 °C. Also, the “K′” value in assay [3] is given as 21.20 ± 0.30 × 10^4 M^-1; in assay [4], 18.58 ± 0.32 × 10^4 M^-1.
In the case of `COc1cccc2c1cc1c3c(cc4c(c32)OCO4)C(=O)N1[C@@H]1O[C@H](CO)[C@@H](O)[C@H](O)[C@H]1O`, the K in assay [1] (240 mM DMSO) was 6.5 ± 0.3 × 10^4 M^-1. This molecule yielded a dTm in assay [2] (second transition about 2°C) of 7 °C. In addition, the results for the “K′” value in assay [3] (240 mM DMSO) and in assay [4] (240 mM DMSO) were 4.33 ± 0.20 × 10^4 M^-1 and 6.38 ± 0.20 × 10^4 M^-1, respectively.

Source of the values: PMC3156712 (2011).
